Measured values taken from publication PMC11850817 (Scientific Reports, 2025).
Like-named read-outs stand apart in the source and are kept apart here.

Experiments:
[1] = tested on: MCF-7; assay: MTT antiproliferative assay, MCF-7; assay type: cell-based, human; conditions: read-out: IC50 MCF-7
[2] = tested on: HT-29; assay: MTT antiproliferative assay, HT-29; assay type: cell-based, human; conditions: read-out: IC50 HT-29
[3] = tested on: EBC-1; assay: MTT antiproliferative assay, EBC-1; assay type: cell-based, human; conditions: read-out: IC50 EBC-1
[4] = tested on: NIH3T3; assay: MTT assay, NIH3T3 non-cancer cell line; assay type: cell-based; conditions: read-out: IC50 NIH3T3
[5] = tested on: AsPC-1; assay: MTT antiproliferative assay, AsPC-1; assay type: cell-based, human; conditions: read-out: IC50 AsPC-1
[6] = tested on: Mia-Paca-2; assay: MTT antiproliferative assay, Mia-Paca-2; assay type: cell-based, human; conditions: read-out: IC50 Mia-Paca-2
[7] = molecular target: FLT3 (Homo sapiens, UniProt P36888); assay: Radiometric kinase assay; assay type: biochemical; conditions: read-out: Kinase inhibition (%) FLT3
[8] = molecular target: PDGFRA (PDGFRα) (Homo sapiens, UniProt P16234); assay: Radiometric kinase assay; assay type: biochemical; conditions: for inhibition at 10 µM: read-out: Kinase inhibition (%) PDGFRA (PDGFRα)
[9] = molecular target: FLT4 (VEGFR3) (Homo sapiens, UniProt P35916); assay: Radiometric kinase assay; assay type: biochemical; conditions: for inhibition at 10 µM: read-out: Kinase inhibition (%) FLT4 (VEGFR3)
[10] = molecular target: KDR (VEGFR2) (Homo sapiens, UniProt P35968); assay: Radiometric kinase assay; assay type: biochemical; conditions: read-out: Kinase inhibition (%) KDR (VEGFR2)
[11] = molecular target: NTRK1 (TrkA) (Homo sapiens, UniProt P04629); assay: Radiometric kinase assay; assay type: biochemical; conditions: read-out: Kinase inhibition (%) NTRK1 (TrkA)
[12] = molecular target: MET (Homo sapiens, UniProt P08581); assay: Radiometric kinase assay; assay type: biochemical; conditions: read-out: Kinase inhibition (%) MET
[13] = molecular target: CDK2/cyclin A (Homo sapiens, UniProt P24941); assay: Radiometric kinase assay; assay type: biochemical; conditions: for inhibition at 10 µM: read-out: Kinase inhibition (%) CDK2/cyclin A
[14] = tested on: EBC-1, AsPC-1, Mia-Paca-2, HT-29, MCF-7 cancer cells; assay: MTT antiproliferative assay, cancer cell lines summarised; assay type: cell-based, human; conditions: MTT
[15] = molecular target: NTRK2 (TrkB) (Homo sapiens, UniProt Q16620); assay: Radiometric kinase assay; assay type: biochemical; conditions: read-out: Kinase inhibition (%) NTRK2 (TrkB)
[16] = tested on: AsPC-1 cells; assay: Apoptosis by Hoechst 33,258 staining; assay type: cell-based, human; conditions: AsPC-1, 10 and 30 µM, 48 h
[17] = molecular target: T1, AXL (Homo sapiens, UniProt P30530); assay: Radiometric kinase assay; assay type: biochemical; conditions: read-out: Kinase inhibition (%) AXL
T1 sequence (P30530 26-894): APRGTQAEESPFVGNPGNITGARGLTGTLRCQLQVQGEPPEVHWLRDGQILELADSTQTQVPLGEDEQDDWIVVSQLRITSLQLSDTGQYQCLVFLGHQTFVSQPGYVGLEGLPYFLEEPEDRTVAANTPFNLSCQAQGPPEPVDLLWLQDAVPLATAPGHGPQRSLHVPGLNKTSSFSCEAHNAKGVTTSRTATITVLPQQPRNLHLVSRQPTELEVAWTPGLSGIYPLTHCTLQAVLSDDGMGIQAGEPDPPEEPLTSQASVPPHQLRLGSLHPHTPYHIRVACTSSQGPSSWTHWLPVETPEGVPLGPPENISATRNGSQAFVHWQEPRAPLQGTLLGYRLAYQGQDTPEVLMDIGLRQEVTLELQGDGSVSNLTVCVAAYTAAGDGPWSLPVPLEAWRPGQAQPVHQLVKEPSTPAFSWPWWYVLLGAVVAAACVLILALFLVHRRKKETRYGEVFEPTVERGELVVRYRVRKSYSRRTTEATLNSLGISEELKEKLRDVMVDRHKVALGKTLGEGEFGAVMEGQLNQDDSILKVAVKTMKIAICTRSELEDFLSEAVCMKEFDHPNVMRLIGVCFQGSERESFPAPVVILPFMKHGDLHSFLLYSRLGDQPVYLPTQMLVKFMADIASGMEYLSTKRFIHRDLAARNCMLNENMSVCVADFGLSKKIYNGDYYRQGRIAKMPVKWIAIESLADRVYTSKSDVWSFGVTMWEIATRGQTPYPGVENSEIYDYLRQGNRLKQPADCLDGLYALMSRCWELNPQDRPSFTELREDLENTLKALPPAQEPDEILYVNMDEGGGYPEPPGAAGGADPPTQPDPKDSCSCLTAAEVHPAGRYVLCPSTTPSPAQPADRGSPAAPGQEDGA

[18] = molecular target: PDGFRB (PDGFRβ) (Homo sapiens, UniProt P09619); assay: Radiometric kinase assay; assay type: biochemical; conditions: read-out: Kinase inhibition (%) PDGFRB (PDGFRβ)
[19] = tested on: AsPC-1 cells; assay: Cell cycle test, RNase/PI flow cytometry; assay type: cell-based, human; conditions: AsPC-1, 3, 10, 30, 50 µM, 48 h
[20] = molecular target: FLT1 (VEGFR1) (Homo sapiens, UniProt P17948); assay: Radiometric kinase assay; assay type: biochemical; conditions: read-out: Kinase inhibition (%) FLT1 (VEGFR1)
[21] = MTT, 72 h, mean ± S.E.M. of 3–5 experiments

PDGFRA (PDGFRα), sequence (P16234 24-1089): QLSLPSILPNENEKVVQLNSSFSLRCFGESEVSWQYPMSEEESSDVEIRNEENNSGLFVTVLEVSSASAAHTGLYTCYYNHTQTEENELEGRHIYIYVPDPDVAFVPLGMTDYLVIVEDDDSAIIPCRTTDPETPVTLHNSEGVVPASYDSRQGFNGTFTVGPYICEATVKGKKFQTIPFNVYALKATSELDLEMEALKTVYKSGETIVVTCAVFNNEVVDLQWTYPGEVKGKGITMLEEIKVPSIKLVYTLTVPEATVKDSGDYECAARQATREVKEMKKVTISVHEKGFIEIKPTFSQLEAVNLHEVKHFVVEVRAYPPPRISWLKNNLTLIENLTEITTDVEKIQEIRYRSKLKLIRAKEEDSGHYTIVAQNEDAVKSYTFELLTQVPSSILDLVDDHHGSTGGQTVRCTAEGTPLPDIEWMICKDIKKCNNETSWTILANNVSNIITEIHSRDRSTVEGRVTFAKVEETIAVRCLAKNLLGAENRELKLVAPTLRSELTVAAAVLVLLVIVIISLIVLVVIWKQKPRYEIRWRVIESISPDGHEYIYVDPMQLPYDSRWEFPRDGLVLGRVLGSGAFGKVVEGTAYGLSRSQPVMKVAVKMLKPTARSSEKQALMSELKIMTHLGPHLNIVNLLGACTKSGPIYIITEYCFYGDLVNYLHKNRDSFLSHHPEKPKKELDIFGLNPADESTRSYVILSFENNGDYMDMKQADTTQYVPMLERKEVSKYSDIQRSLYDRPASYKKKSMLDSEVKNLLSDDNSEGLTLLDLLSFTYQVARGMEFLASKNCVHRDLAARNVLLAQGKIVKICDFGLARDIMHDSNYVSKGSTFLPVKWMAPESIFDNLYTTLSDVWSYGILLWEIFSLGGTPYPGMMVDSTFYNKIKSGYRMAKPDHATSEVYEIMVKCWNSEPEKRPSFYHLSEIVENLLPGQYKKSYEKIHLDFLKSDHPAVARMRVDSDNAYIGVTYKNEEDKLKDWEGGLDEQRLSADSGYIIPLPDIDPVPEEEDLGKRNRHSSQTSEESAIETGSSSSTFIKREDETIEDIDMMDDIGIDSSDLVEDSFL
FLT4 (VEGFR3), sequence (P35916 25-1363): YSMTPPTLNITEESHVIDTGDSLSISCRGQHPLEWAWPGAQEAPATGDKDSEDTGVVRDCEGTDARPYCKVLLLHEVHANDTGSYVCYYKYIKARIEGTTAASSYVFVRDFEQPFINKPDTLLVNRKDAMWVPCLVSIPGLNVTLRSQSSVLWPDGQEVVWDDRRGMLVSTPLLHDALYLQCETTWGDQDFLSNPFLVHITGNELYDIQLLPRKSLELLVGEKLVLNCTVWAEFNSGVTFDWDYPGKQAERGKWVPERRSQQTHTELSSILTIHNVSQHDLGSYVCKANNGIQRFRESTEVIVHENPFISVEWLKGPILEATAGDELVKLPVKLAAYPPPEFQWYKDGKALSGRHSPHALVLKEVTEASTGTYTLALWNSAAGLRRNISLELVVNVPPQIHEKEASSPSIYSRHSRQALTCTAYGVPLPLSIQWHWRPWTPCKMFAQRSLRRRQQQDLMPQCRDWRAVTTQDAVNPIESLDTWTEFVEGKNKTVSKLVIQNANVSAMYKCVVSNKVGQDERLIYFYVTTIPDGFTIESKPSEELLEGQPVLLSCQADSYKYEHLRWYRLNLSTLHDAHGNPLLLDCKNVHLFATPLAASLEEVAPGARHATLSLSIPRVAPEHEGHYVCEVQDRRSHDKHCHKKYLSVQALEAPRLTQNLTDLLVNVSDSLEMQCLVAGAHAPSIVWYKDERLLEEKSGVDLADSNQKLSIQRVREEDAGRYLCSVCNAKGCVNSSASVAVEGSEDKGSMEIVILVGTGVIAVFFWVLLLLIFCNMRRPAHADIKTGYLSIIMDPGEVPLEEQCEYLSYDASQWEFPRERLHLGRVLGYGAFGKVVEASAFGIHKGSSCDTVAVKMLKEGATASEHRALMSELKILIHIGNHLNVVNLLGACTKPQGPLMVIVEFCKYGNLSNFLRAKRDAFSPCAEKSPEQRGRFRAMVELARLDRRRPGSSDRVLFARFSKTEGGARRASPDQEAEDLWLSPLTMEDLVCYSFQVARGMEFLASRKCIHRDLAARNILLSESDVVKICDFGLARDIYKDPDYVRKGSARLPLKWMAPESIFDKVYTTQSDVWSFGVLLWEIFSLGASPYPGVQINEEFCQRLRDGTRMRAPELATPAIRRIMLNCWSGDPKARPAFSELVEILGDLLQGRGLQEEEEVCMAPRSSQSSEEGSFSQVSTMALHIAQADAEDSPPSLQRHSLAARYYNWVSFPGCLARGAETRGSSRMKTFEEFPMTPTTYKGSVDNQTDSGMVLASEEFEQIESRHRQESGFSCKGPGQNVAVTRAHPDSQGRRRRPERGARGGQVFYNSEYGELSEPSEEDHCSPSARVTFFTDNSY
MET, sequence (P08581 25-1390): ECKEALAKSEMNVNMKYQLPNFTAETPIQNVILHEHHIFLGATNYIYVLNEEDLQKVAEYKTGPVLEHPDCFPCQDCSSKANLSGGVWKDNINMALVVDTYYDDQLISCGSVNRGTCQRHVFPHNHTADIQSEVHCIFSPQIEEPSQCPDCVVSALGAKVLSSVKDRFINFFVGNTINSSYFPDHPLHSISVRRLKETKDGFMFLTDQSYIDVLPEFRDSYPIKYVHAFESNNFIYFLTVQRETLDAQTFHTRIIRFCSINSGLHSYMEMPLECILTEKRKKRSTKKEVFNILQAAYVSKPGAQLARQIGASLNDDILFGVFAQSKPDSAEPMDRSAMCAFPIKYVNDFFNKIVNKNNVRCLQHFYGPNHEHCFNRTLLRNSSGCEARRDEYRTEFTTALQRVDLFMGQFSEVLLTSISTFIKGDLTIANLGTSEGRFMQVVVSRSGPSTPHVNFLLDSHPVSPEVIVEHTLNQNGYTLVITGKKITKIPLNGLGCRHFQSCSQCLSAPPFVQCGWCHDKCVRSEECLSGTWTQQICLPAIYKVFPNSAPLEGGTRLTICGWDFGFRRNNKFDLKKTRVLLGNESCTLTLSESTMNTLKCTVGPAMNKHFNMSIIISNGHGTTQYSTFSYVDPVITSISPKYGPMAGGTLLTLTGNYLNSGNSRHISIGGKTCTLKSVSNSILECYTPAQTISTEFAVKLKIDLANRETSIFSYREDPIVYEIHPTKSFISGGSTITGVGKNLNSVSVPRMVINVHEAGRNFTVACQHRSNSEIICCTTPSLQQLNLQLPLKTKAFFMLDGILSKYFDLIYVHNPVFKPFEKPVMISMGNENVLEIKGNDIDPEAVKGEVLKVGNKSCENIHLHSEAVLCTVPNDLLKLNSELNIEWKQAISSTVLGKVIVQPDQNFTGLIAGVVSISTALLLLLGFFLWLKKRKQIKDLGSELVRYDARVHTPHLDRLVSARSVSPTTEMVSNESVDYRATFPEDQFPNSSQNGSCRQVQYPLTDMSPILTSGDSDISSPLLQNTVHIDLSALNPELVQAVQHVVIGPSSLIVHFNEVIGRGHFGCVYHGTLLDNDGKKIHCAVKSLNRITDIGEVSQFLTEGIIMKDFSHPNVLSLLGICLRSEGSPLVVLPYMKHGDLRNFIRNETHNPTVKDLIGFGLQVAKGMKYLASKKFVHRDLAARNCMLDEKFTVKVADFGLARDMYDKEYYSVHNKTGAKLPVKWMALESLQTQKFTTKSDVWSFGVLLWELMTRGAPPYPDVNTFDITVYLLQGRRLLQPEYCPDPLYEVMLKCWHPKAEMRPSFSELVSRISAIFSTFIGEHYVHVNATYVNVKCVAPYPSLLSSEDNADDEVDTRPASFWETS
KDR (VEGFR2), sequence (P35968 20-1356): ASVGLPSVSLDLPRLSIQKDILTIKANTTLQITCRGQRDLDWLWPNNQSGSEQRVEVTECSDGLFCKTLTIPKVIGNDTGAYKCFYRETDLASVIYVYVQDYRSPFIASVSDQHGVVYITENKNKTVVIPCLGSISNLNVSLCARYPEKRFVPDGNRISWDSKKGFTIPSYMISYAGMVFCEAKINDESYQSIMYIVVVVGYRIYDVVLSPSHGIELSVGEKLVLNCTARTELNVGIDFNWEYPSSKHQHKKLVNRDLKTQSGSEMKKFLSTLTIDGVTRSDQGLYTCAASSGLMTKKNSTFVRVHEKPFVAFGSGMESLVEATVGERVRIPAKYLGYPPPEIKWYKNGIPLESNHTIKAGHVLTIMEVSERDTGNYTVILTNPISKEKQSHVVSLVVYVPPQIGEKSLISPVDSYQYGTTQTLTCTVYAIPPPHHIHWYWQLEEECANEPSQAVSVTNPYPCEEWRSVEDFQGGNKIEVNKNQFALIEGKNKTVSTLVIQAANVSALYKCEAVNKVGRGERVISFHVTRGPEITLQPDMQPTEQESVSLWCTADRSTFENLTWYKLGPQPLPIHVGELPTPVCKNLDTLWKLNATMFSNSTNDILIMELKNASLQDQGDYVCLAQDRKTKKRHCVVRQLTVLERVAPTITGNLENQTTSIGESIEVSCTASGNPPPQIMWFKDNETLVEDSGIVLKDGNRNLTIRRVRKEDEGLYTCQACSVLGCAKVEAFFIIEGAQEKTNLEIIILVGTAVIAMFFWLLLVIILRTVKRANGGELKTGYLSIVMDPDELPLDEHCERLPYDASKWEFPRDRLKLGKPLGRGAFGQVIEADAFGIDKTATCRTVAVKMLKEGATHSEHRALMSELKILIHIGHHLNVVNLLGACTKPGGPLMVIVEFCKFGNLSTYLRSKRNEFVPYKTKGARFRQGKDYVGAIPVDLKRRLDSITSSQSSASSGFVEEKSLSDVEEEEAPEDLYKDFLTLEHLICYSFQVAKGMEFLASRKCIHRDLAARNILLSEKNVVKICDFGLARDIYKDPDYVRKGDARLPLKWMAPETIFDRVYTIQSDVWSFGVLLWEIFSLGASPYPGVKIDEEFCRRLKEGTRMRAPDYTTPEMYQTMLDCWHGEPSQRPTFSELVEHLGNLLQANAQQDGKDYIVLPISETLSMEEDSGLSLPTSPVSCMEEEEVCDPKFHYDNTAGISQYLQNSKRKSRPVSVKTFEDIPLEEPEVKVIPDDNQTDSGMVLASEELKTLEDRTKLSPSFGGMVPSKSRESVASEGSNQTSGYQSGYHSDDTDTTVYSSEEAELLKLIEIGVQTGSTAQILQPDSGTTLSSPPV

Row | SMILES | IC50 ([1]; Homo sapiens, MCF7, 72 h) | IC50 ([2]; Homo sapiens, HT-29, 72 h) | IC50 ([5]; Homo sapiens, ASPC1, 72 h) | IC50 ([6]; Homo sapiens, MIA PaCa-2, 72 h) | IC50 ([3]; Homo sapiens, EBC-1, 72 h) | IC50 ([4]; Mus musculus, NIH3T3, 72 h) | further results
1 | N.N.[Cl][Pt][Cl] [Cisplatin, reference compound] |  |  |  |  |  |  | IC50 [1, 21]: 43.1 ± 1.9 µM; IC50 [2, 21]: 43.3 ± 17.3 µM; IC50 [3, 21]: 24 ± 5.5 µM; IC50 ([4]; MTT, 72 h, non-cancer cell line, mean ± S.E.M.): 8.3 ± 1.4 µM; IC50 [5, 21]: 5.4 ± 0.6 µM; IC50 [6, 21]: 22.1 ± 6.2 µM
2 | COc1cccc2c1C(=O)c1c(O)c3c(c(O)c1C2=O)C[C@@](O)(C(=O)CO)C[C@@H]3O[C@H]1C[C@H](N)[C@H](O)[C@H](C)O1 [Doxorubicin, reference compound] | 0.137 ± 0.0063 µM | 0.6 ± 0.2 µM | 1.73 ± 0.2 µM | 0.0881 ± 0.0526 µM | 0.5 ± 0.1 µM | 0.013 ± 0.0021 µM | 
3 | CC(C)c1ccc(Cn2cc(COc3ccc(NC4=CC(=O)c5ccccc5C4=O)cc3)nn2)cc1 [Compound 4 g, 2-((4-((1-(4-Isopropylbenzyl)−1H-1,2,3-triazol-4-yl)methoxy)phenyl)amino) naphthalene-1,4-dione] | 22.3 ± 3.8 µM | 4.9 ± 0.9 µM | 12.8 ± 2.9 µM | 45 ± 8.2 µM | 2 ± 0.5 µM | 24.5 ± 5.2 µM | inhibition at 10 µM [7]: -2%; inhibition at 10 µM [8]: 29%; inhibition at 10 µM [9]: 9%; inhibition at 10 µM [10]: -10%; inhibition at 10 µM [11]: 6%; inhibition at 10 µM [12]: -11%; inhibition at 10 µM [13]: 1%
4 | CC(C)(C)c1ccc(Cn2cc(COc3ccc(NC4=CC(=O)c5ccccc5C4=O)cc3)nn2)cc1 [Compound 4 h, 2-((4-((1-(4-(Tert-butyl)benzyl)−1H-1,2,3-triazol-4yl)methoxy)phenyl)amino) naphthalene-1,4-dione] | 20.3 ± 0.2 µM | 2.5 ± 0.7 µM | 16.2 ± 2 µM | 31.3 ± 3.3 µM | 8.7 ± 1.3 µM | 46.7 ± 3.2 µM | 
5 | COc1cc2nccc(Oc3ccc(NC(=O)C4(C(=O)Nc5ccc(F)cc5)CC4)cc3)c2cc1OC [Cabozantinib, reference compound] | 17.8 ± 2.4 µM | 3.7 ± 0.4 µM | 21.3 ± 2.03 µM | 7.4 ± 0.6 µM | 0.06 ± 0.01 µM |  | 

Now from value to molecule, other results behind:

Row | IC50 ([1]; Homo sapiens, MCF7, 72 h) | IC50 ([2]; Homo sapiens, HT-29, 72 h) | IC50 ([5]; Homo sapiens, ASPC1, 72 h) | IC50 ([6]; Homo sapiens, MIA PaCa-2, 72 h) | SMILES | IC50 ([3]; Homo sapiens, EBC-1, 72 h) | IC50 ([4]; Mus musculus, NIH3T3, 72 h) | further results
6 | > 100 µM | > 50 µM | > 100 µM | > 100 µM | O=C1C=C(Nc2ccc(OCc3cn(CCN4C(=O)c5ccccc5C4=O)nn3)cc2)C(=O)c2ccccc21 [Compound 4j, 2-(2-(4-((4-((1,4-Dioxo-1,4-dihydronaphthalen-2-yl)amino)phenoxy)methyl)−1H-1,2,3-triazol-1-yl)ethyl)isoindoline-1,3-dione] | > 50 µM |  | Antiproliferative activity against cancer cell lines (in words) [14]: devoid of any antiproliferative potential against all cancer cells
7 | 26.9 ± 0.2 µM | > 100 µM | 34.8 ± 15.3 µM | 61 ± 6.6 µM | O=C1C=C(Nc2ccc(OCc3cn(Cc4ccc(F)cc4)nn3)cc2)C(=O)c2ccccc21 [Compound 4c, 2-((4-((1-(4-Fluorobenzyl)−1H-1,2,3-triazol-4-yl)methoxy)phenyl)amino) naphthalene-1,4-dione] | 13.7 ± 3.3 µM | 20.1 ± 3.3 µM | 
8 | 13.9 ± 0.7 µM | 1.3 ± 0.5 µM | 5.4 ± 0.9 µM | 20.6 ± 6.2 µM | Cc1ccc(Cn2cc(COc3ccc(NC4=CC(=O)c5ccccc5C4=O)cc3)nn2)cc1 [Compound 4i, 2-((4-((1-(4-Methylbenzyl)−1H-1,2,3-triazol-4-yl)methoxy)phenyl)amino) naphthalene-1,4-dione] | 2.5 ± 0.3 µM | 25.5 ± 6.1 µM | inhibition at 10 µM [15]: 19%; IC50 [8]: 0.22 ± 0.009 µM; inhibition at 10 µM [8]: 74%; IC50 [9]: 1.336 ± 0.006 µM; inhibition at 10 µM [9]: 87%; Apoptosis induction (nuclear morphology) [16]: characteristic features of apoptosis including densely packed chromatin within the nucleus as well as nuclear fragmentation; inhibition at 10 µM [17]: 8%; inhibition at 10 µM [10]: 28%; inhibition at 10 µM [18]: 5%; inhibition at 10 µM [12]: 16%; IC50 [13]: 11.3 ± 0.477 µM; inhibition at 10 µM [13]: 51%; Effect on cell cycle distribution (S and G2/M phases) [19]: dose-dependently increased the number of cells in the S phase and simultaneously reduced the cells in G2/M phase; inhibition at 10 µM [20]: -17%
9 | 15.9 ± 4.6 µM | 3.1 ± 0.4 µM | 20.8 ± 6.8 µM | 21.3 ± 3.6 µM | O=C1C=C(Nc2ccc(OCc3cn(Cc4ccc(Cl)cc4)nn3)cc2)C(=O)c2ccccc21 [Compound 4d, 2-((4-((1-(4-Chlorobenzyl)−1H-1,2,3-triazol-4-yl)methoxy)phenyl)amino) naphthalene-1,4-dione] | 1.9 ± 0.3 µM | 14.4 ± 1.9 µM | 
10 | > 100 µM | 1.9 ± 0.4 µM | 10.5 ± 2.6 µM | 42.1 ± 12.6 µM | O=C1C=C(Nc2ccc(OCc3cn(Cc4cccc(Cl)c4)nn3)cc2)C(=O)c2ccccc21 [Compound 4f, 2-((4-((1-(3-Chlorobenzyl)−1H-1,2,3-triazol-4-yl)methoxy)phenyl)amino) naphthalene-1,4-dione] | 2.3 ± 0.4 µM | 29.8 ± 7.3 µM | 
